Where two headings read alike, the source gives them in different places.
Key:
wild type virus (IIIB) = experiment: HIV-AVE-MT4-MTT cellular assay, wild type virus (IIIB); type: cell-based; settings: for EC50: Human immunodeficiency virus 1, IIIB
Method: (§1) HIV- or mock-infected MT4 cells were incubated for five days in the presence of various concentrations of the inhibitor. At the end of the incubation period, all HIV-infected cells have been killed by the replicating virus in the control cultures in the absence of any inhibitor. Cell viability is measured by measuring the concentration of MTT, a yellow, water soluble tetrazolium dye that is converted to a purple, water insoluble formazan in the mitochondria of living cells only. Upon solubilization of the resulting formazan crystals with isopropanol, the absorbance of the solution is monitored at 540 nm. The values correlate directly to the number of living cells remaining in the culture at the completion of the five day incubation. The inhibitory activity of the compound was monitored on the virus-infected cells and was expressed as EC50 and EC90. These values represent the amount of the compound required to protect 50% and 90%, respectively, of the cells from the cytopathogenic effect of the virus. The toxicity of the compound was measured on the mock-infected cells and was expressed as CC50, which represents the concentration of compound required to inhibit the growth of the cells by 50%. The selectivity index (SI) (ratio CC50/EC50) is an indication of the selectivity of the anti-HIV activity of the inhibitor.

virus strain F (R13025) = experiment: microbe, parasite or virus in culture; type: cell-based, HIV; settings: for EC50: Human immunodeficiency virus 1, MT4, read-out: HIV-AVE-MT4-MTT-R13025-2-002 pEC50, virus strain F (R13025), MT4 cells, MTT (converted)
Method: as §1, with “At the end of the incubation period, all HIV-infected cells have been killed by the replicating virus in the control cultures in the absence of any inhibitor.” left out
(§2) Because of the increasing emergence of drug resistant HIV strains, the present compounds were tested for their potency against clinically isolated HIV strains harboring several mutations.
(§3) As a measure of the broad spectrum activity of the present compounds, the fold resistance (FR) defined as FR=EC50(mutant strain)/EC50(HIV-1 strain LAI).

virus strain S (R13080) = experiment: microbe, parasite or virus in culture; type: cell-based, HIV; settings: for EC50: Human immunodeficiency virus 1, MT4, read-out: HIV-AVE-MT4-MTT-R13080-2-002 pEC50, virus strain S (R13080), MT4 cells, MTT (converted)
Method: as §1, with “At the end of the incubation period, all HIV-infected cells have been killed by the replicating virus in the control cultures in the absence of any inhibitor.” left out
as §2, §3

[1] = MT4, wild type virus (IIIB), MT4 cells, MTT, read-out: HIV-AVE-MT4-MTT-IIIB-2-002 pEC50 (converted)

CC(C)CN(C[C@@H](O)[C@H](Cc1ccccc1)NC(=O)OCc1cncs1)S(=O)(=O)c1ccc2nc(N(C)C(=O)CN(C)C)sc2c1 [Compound 176]
HIV-AVE-MT4-MTT-IIIB-2-002 pEC50 (wild type virus (IIIB); wild type virus (IIIB), MT4 cells, MTT): 8.39
HIV-AVE-MT4-MTT-R13025-2-002 pEC50 (virus strain F (R13025); virus strain F (R13025), MT4 cells, MTT): 7.2
HIV-AVE-MT4-MTT-R13080-2-002 pEC50 (virus strain S (R13080); virus strain S (R13080), MT4 cells, MTT): 6.65

CC(C)CN(C[C@@H](O)[C@H](Cc1ccccc1)NC(=O)O[C@H]1CO[C@H]2OCC[C@H]21)S(=O)(=O)c1ccc2nc(NC(=O)c3cncs3)sc2c1 [Compound 177]
EC50 (wild type virus (IIIB); [1]): 37.2 nM
EC50 (virus strain F (R13025)): 7.59 nM
EC50 (virus strain S (R13080)): 49 nM

CC(C)CN(C[C@@H](O)[C@H](Cc1ccccc1)NC(=O)O[C@H]1CO[C@H]2OCC[C@H]21)S(=O)(=O)c1ccc2nc(N(CCN3CCCC3)C(=O)OC3CO[C@@H]4OCO[C@H]34)sc2c1 (stereo partly drawn) [Compound 178]
EC50 (wild type virus (IIIB); [1]): 17.4 nM
EC50 (virus strain F (R13025)): 10.7 nM
EC50 (virus strain S (R13080)): 33.9 nM

CC(C)CN(C[C@@H](O)[C@H](Cc1ccccc1)NC(=O)OCc1cncs1)S(=O)(=O)c1ccc2nc(NC(=O)c3ccc[nH]3)sc2c1 [Compound 179]
EC50 (wild type virus (IIIB); [1]): 8.91 nM
EC50 (virus strain F (R13025)): 57.5 nM
EC50 (virus strain S (R13080)): 47.9 nM

CC(C)CN(C[C@@H](O)[C@H](Cc1ccccc1)NC(=O)OCc1cncs1)S(=O)(=O)c1ccc2nc(N(C)C(=O)c3ccc[nH]3)sc2c1 [Compound 180]
EC50 (wild type virus (IIIB); [1]): 155 nM
EC50 (virus strain F (R13025)): 891 nM
EC50 (virus strain S (R13080)): 10000 nM

CC(C)CN(C[C@@H](O)[C@H](Cc1ccccc1)NC(=O)OCc1cncs1)S(=O)(=O)c1ccc2nc(N(C)C(=O)c3cc[nH]c3)sc2c1 [Compound 181]
EC50 (wild type virus (IIIB); [1]): 33.1 nM
EC50 (virus strain F (R13025)): 525 nM
EC50 (virus strain S (R13080)): 1820 nM

CC(C)CN(C[C@@H](C)[C@H](Cc1ccccc1)NC(=O)OCc1cncs1)S(=O)(=O)c1ccc2nc(N(C)C(=O)c3ccncc3)sc2c1 [Compound 182]
EC50 (wild type virus (IIIB); [1]): 4.79 nM
EC50 (virus strain F (R13025)): 36.3 nM
EC50 (virus strain S (R13080)): 170 nM

CC(C)CN(C[C@@H](O)[C@H](Cc1ccccc1)NC(=O)OCc1cncs1)S(=O)(=O)c1ccc2nc(NC(=O)C3CCCN(C)C3)sc2c1 (stereo partly drawn) [Compound 183]
EC50 (wild type virus (IIIB); [1]): 3.55 nM
EC50 (virus strain F (R13025)): 1.7 nM
EC50 (virus strain S (R13080)): 7.08 nM

CC(C)CN(C[C@@H](O)[C@H](Cc1ccccc1)NC(=O)O[C@H]1CO[C@H]2OCC[C@H]21)S(=O)(=O)c1ccc2nc(NCCN3CCCC3)sc2c1 [Compound 184]
EC50 (wild type virus (IIIB); MT4, read-out: HIV-AVE-MT4-MTT-IIIB-2-002 pEC50 (converted)): 17.4 nM
EC50 (virus strain F (R13025)): 4.47 nM
EC50 (virus strain S (R13080)): 26.9 nM

CC(C)CN(C[C@@H](O)[C@H](Cc1ccccc1)NC(=O)O[C@H]1CO[C@H]2OCC[C@H]21)S(=O)(=O)c1ccc2nc(NCCN)sc2c1 [Compound 185]
EC50 (wild type virus (IIIB); [1]): 45.7 nM
EC50 (virus strain F (R13025)): 33.1 nM
EC50 (virus strain S (R13080)): 34.7 nM

CCN1CCCC1CNc1nc2ccc(S(=O)(=O)N(CC(C)C)C[C@@H](O)[C@H](Cc3ccccc3)NC(=O)O[C@H]3CO[C@H]4OCC[C@H]43)cc2s1 (stereo partly drawn) [Compound 186]
EC50 (wild type virus (IIIB); [1]): 6.17 nM
EC50 (virus strain F (R13025)): 6.61 nM
EC50 (virus strain S (R13080)): 28.8 nM

CC(C)CN(C[C@@H](O)[C@H](Cc1ccccc1)NC(=O)C(NC(=O)CNCc1cccc(F)c1)C(C)(C)C)S(=O)(=O)c1ccc2nc(NCCCN(C)C)sc2c1 (stereo partly drawn) [Compound 188]
EC50 (wild type virus (IIIB); [1]): 200 nM
EC50 (virus strain F (R13025)): 93.3 nM
EC50 (virus strain S (R13080)): 132 nM

CC(C)CN(C[C@@H](O)[C@H](Cc1ccccc1)NC(=O)C(NC(=O)CNCc1cccc(F)c1)C(C)(C)C)S(=O)(=O)c1ccc2nc(NCCN3CCCC3)sc2c1 (stereo partly drawn) [Compound 189]
EC50 (wild type virus (IIIB); [1]): 44.7 nM
EC50 (virus strain F (R13025)): 102 nM
EC50 (virus strain S (R13080)): 138 nM
